Data from patent publication EP1878431B1, “MEDICINAL AGENT FOR PREVENTING PROGRESSION OF APOPTOTIC AND JUGULATING NECROTIC CHANGES IN THE ORGANISM TISSUES” (Obschestvo S Ogranichennoi Otvetstvennostyu …, priority 2005, dated 2006).
Marks after values point to notes of the source that are not given here.

Legend:
[1] = tested on: poly-(ADP-ribose)-polymerase; test: PARP activity during myocardium ischemia with arterial hypertension; type: in vivo, rats; conditions: no unit in table (b49 gives the norm in pkMole/mg of protein)
Experimental: (§1) The apoptosis activity was judged by poly-(ADP-ribose)-polymerase (key ferment of apoptotic cell loss), which was determined using Amersham Pharmacia Biotech test sets. The extent of necrotic cardiomyocites damage was estimated according to the quantity of myoglobin entry in the blood, in which the myoglobin content was measured spectrophotometrically.
Arterial hypertensia of normotensive rats was reproduced by imposing the ligature in the form of a titanic heliciform ring on a site of an aorta with the arteries of kidneys departing from it. The reached narrowing of an aortic lumen was 2/3 in diameter. Animals were operated on under anesthetic, in which their abdominal cavity was opened. The arterial pressure was measured by use of a gauge with a rubber cuff on the animal's tail. A signal from the gauge was recorded on a Mingograph EMT 118. On the 30th day after the operation, all of the animals were divided into two groups: in the first group the animal's left descending interventricular artery at its top third was ligated - the hard ischemia of a myocardium, and in the second group, an irreversible bilateral occlusion of the general carotids was reproduced with a silk thread (see example 9). […] Both groups of animals were euthanased on the 10th day after the operation. […]

myocardium = test: Myocardium ischemia (coronary artery ligation) with arterial hypertension: arrhythmia, ischemia and necrosis zones, myoglobin; type: in vivo, rats; conditions: for Arrhythmia duration / Ischemia zone, % of myocardium mass / Necrosis zone, % from ischemia zone / Necrosis zone, % from myocardium mass: 6 hours after bandaging
Experimental: as §1
Arterial hypertensia of normotensive rats was reproduced by imposing the ligature in the form of a titanic heliciform ring on a site of an aorta with the arteries of kidneys departing from it. The reached narrowing of an aortic lumen was 2/3 in diameter. Animals were operated on under anesthetic, in which their abdominal cavity was opened. The arterial pressure was measured by use of a gauge with a rubber cuff on the animal's tail. A signal from the gauge was recorded on a Mingograph EMT 118. On the 30th day after the operation, all of the animals were divided into two groups: in the first group the animal's left descending interventricular artery at its top third was ligated - the hard ischemia of a myocardium, and in the second group, an irreversible bilateral occlusion of the general carotids was reproduced with a silk thread (see example 9). […] Both groups of animals were euthanased on the 10th day after the operation. All of the investigated connections were introduced intravenously (this method of introduction was chosen to reflect the maximum effect of the medication) within 15 minutes after coronary artery bandaging. The developed means was also introduced intravenously in the form of an infusion in 5% glucose, or in tablet form with an oral administration, or in a kind of suppository.

[2] = tested on: low-resistant to hypoxia animals; test: Acute hypobaric anoxia in combination with hypercapnia (lifting to 11,500 m): lifetime, loss of pose time, restitution time, stability factor; type: in vivo; conditions: for Stability factor: ratio of duration to restitution time
Experimental: (§2) Example 7. Acute hypobaric anoxia (as one of the most adequate methods of hypoxia study) in combination with hypercapnia was modeled by "lifting" low-resistant to hypoxia animals to a critical altitude of 11,500 m at a speed of 1,200 m/min. If at this altitude for more than 10 minutes, hypoxia modeling stopped, and the animals were considered conditionally "high-resistant", and animals that lived less than 10 minutes were considered conditionally "low-resistant". In the present study, only animals with low-resistance to hypoxia were used. During the second experiment of "lifting" animals in order to simulate hypobaric anoxia, in combination with hypercapnia, these parameters were recorded: loss of pose time (LPT), lifetime - time from the end of "lifting" until respiratory standstill or the first atonal inhalation occurrence, restitution time (RT) - from a respiratory standstill until active pose restoration after descending the animal. The hypoxia stability factor was calculated as a ratio of the duration to the restitution time, an increase of which means the growth of the organism's resistance to the occurrence of extreme oxygen deprivation.
(§3) The studied substances were injected intravenously (method that reflects the maximum effect of the medication) 15 minutes prior to the experiment. The designed medication was also injected intravenously in the form of an infusion or pills that were administered orally or a suppository.

[3] = tested on: poly-(ADP-ribose)-polymerase; test: PARP activity in myocardium and brain at acute hypobaric hypoxia with hypercapnia; type: in vivo
Experimental: as §1, §2, §3

[4] = 100 mg/kg intravenously within 15 minutes after coronary artery bandaging
[5] = 50 mg/kg intravenously 15 minutes prior to the experiment
[6] = 100 mg/kg intravenously 15 minutes prior to the experiment
[7] = 500 mg/kg intravenously 15 minutes prior to the experiment
[8] = 75 mg/kg intravenously within 15 minutes after coronary artery bandaging
[9] = 1.0 mg/kg intravenously 15 minutes prior to the experiment
[10] = 10.0 mg/kg intravenously 15 minutes prior to the experiment

## CCc1nc(C)ccc1O [3-hydroxy-6-methyl-2-ethylpyridine]
[1]; [4]
  PARP activity: 0,256± 0,032
myocardium; [4]
  Arrhythmia duration: 58 ± 9 min
  Ischemia zone, % of myocardium mass: 39±3 % of myocardium mass
  Necrosis zone, % from ischemia zone: 67±3 % from ischemia zone
  Necrosis zone, % from myocardium mass: 26±9 % from myocardium mass
  Myoglobin content after 8 hours: 127±12 mcg/g dry solid matter

## CCc1nc(C)ccc1O.O=C(O)CCC(=O)O [3-oxy-3-methyl-6-oxypyridine succinate]
[2]; [5]
  Duration: 778 ± 107 s
  Loss of Pose Time: 136 ± 22 s
  Restitution time: 680 ± 69 s
  Stability factor: 1.14±0.12
[2]; [6]
  Duration: 707 ± 145 s
  Loss of Pose Time: 156 ± 29 s
  Restitution time: 642 ± 69 s
  Stability factor: 1.10±0.13
[2]; [7]
  Duration: 784 ± 107 s
  Loss of Pose Time: 136 ± 39 s
  Restitution time: 690 ± 83 s
  Stability factor: 1.14±0.10
[3]; [5]
  PARP activity, % of control brain: 312±29 % of control
  PARP activity, % of control myocardium: 204±21 % of control
[3]; [6]
  PARP activity, % of control brain: 317±21 % of control
  PARP activity, % of control myocardium: 208±29 % of control
[3]; [7]
  PARP activity, % of control brain: 302±32 % of control
  PARP activity, % of control myocardium: 202±19 % of control

## C[N+](C)(C)C[C@H](O)CC(=O)[O-] [L-carnitine]
[1]; [8]
  PARP activity: 0,406± 0,030
myocardium; [8]
  Arrhythmia duration: 68 ± 8 min
  Ischemia zone, % of myocardium mass: 40±3 % of myocardium mass
  Necrosis zone, % from ischemia zone: 70±5 % from ischemia zone
  Necrosis zone, % from myocardium mass: 28±9 % from myocardium mass
  Myoglobin content after 8 hours: 132±10 mcg/g dry solid matter

## O=C([O-])CCCO.[Li+] [Lithium oxybutyrate]
[2]; [6]
  Duration: 1345 ± 89 s
  Loss of Pose Time: 436+90** sec
  Restitution time: 885 ± 82 s
  Stability factor: 1.4±0.2
[3]; [6]
  PARP activity, % of control brain: 300±82 % of control
  PARP activity, % of control myocardium: 200±33 % of control

## NC(=O)c1ccc[n+]([C@@H]2O[C@H](COP(=O)([O-])OP(=O)(O)OC[C@H]3O[C@@H](n4cnc5c(N)ncnc54)[C@H](O)[C@@H]3O)[C@@H](O)[C@H]2O)c1 [NAD, nicotine-amide-adenine-dinucleotide]
[2]; [9]
  Duration: 2034 ± 234 s
  Loss of Pose Time: 936 ± 79 s
  Restitution time: 1042 ± 44 s
  Stability factor: 1.95±0.25
[2]; [10]
  Duration: 2077 ± 109 s
  Loss of Pose Time: 1036 ± 91 s
  Restitution time: 1000 ± 82 s
  Stability factor: 2.08±0.22
[3]; [9]
  PARP activity, % of control myocardium: 100±29 % of control
[3]; [10]
  PARP activity, % of control myocardium: 103±24 % of control

## NC(=S)N=C(N)N [hutimine]
[2]; [6]
  Duration: 986 ± 87 s
  Loss of Pose Time: 186 ± 32 s
  Restitution time: 685 ± 82 s
  Stability factor: 1.45±0.12
[3]; [6]
  PARP activity, % of control brain: 290±83 % of control
  PARP activity, % of control myocardium: 212±23 % of control

## OC[C@H]1O[C@@H](n2cnc3c(O)ncnc32)[C@H](O)[C@@H]1O [inosine]
[2]; [6]
  Duration: 754 ± 30 s
  Loss of Pose Time: 186 ± 39 s
  Restitution time: 680 ± 69 s
  Stability factor: 1.16±0.16
[3]; [6]
  PARP activity, % of control brain: 242±24 % of control
  PARP activity, % of control myocardium: 192±23 % of control

## O=C(O)CCC(=O)O [succinic acid]
[2]; [6]
  Duration: 747 ± 90 s
  Loss of Pose Time: 121 ± 34 s
  Restitution time: 1042 ± 69 s
  Stability factor: 1.0±0.2
[3]; [6]
  PARP activity, % of control brain: 325±20 % of control
  PARP activity, % of control myocardium: 225±22 % of control
